In patent US20230365592A1 (Agios Pharmaceuticals, Inc., priority 2022, published 2023):

Biological target: T1, human PAH with the R408W mutation (Homo sapiens, UniProt P00439, R408W)
T1 construct: expressed in transfected cells
T1 sequence (P00439 1-452 R408W): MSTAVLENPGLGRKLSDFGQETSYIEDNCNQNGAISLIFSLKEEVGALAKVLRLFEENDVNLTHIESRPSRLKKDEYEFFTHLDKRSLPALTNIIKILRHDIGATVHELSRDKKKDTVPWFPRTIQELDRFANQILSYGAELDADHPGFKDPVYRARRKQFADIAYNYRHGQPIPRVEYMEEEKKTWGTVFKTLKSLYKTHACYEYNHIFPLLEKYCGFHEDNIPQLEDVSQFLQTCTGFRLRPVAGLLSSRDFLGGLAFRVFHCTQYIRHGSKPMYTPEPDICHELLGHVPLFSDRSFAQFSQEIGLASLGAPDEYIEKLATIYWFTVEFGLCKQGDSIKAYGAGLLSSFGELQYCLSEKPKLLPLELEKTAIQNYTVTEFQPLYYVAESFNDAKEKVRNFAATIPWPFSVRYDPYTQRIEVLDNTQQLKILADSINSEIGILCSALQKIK
Test: Cell Based Phenylalanine Flux Assay;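 note: after compound treatment, cells received sepiapterin plus isotope-labelled Phenylalanine for 4 hours, then labelled Tyrosine in the medium was quantified, 10-point 2-fold dilution series run in duplicate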
Details: A375 cells expressing human R408W PAH; 24 hrs compound incubation; 13C-Tyrosine by LC-MS; average where tested multiple times; read-out: AC50

Row | AC50 | Structure (SMILES)
1 | 500 to 1000 nM | COc1cccn2nc([C@@H]3c4nc[nH]c4CCN3C(=O)c3nnc(C4CC4)o3)cc12 [Example 1168, (S)-(5-cyclopropyl-1,3,4-oxadiazol-2-yl)(4-(4-methoxypyrazolo[1,5-a]pyridin-2-yl)-6,7-dihydro-1H-imidazo[4,5-c]pyridin-5(4H)-yl)methanone]
2 | > 5000 nM | COc1cccn2nc([C@H]3c4nc[nH]c4CCN3C(=O)c3nnc(C4CC4)o3)cc12 [Example 1169, (R)-(5-cyclopropyl-1,3,4-oxadiazol-2-yl)(4-(4-methoxypyrazolo[1,5-a]pyridin-2-yl)6,7-dihydro-1H-imidazo[4,5-c]pyridin-5(4H)-yl)methanone]
3 | 500 to 1000 nM | Cc1ccc2cc([C@@H]3c4nc[nH]c4CCN3C(=O)c3nnc(C(C)(C)F)o3)nn2c1 [Example 1171, (S)-(5-(2-fluoropropan-2-yl)-1,3,4-oxadiazol-2-yl)(4-(6-methylpyrazolo[1,5-a]pyridin-2-yl)-6,7-dihydro-1H-imidazo[4,5-c]pyridin-5(4H)-yl)methanone]
4 | < 500 nM | O=C(c1ocnc1C(F)(F)F)N1CCc2[nH]cnc2[C@H]1c1cc2cccc(Cl)n2n1 [Example 1172, (S)-(4-(7-chloropyrazolo[1,5-a]pyridin-2-yl)-6,7-dihydro-1H-imidazo[4,5-c]pyridin-5(4H)-yl)(4-(trifluoromethyl)oxazol-5-yl)methanone]
5 | 500 to 1000 nM | Cc1ncoc1C(=O)N1CCc2[nH]cnc2[C@H]1c1cc2cccc(Cl)n2n1 [Example 1174, (S)-(4-(7-chloropyrazolo[1,5-a]pyridin-2-yl)-6,7-dihydro-1H-imidazo[4,5-c]pyridin-5(4H)-yl)(4-methyloxazol-5-yl)methanone]
6 | < 500 nM | O=C(c1ocnc1C(F)(F)F)N1CCc2[nH]cnc2[C@H]1c1cc2cccc(C(F)(F)F)n2n1 [Example 1176, (S)-(4-(trifluoromethyl)oxazol-5-yl)(4-(7-(trifluoromethyl)pyrazolo[1,5-a]pyridin-2-yl)-6,7-dihydro-1H-imidazo[4,5-c]pyridin-5(4H)-yl)methanone]
7 | < 500 nM | CC(C)(O)c1nc(C(F)(F)F)c(C(=O)N2CCc3[nH]cnc3[C@H]2c2cc3cccc(C(F)(F)F)n3n2)o1 [Example 1178, (S)-(2-(2-hydroxypropan-2-yl)-4-(trifluoromethyl)oxazol-5-yl)(4-(7-(trifluoromethyl)pyrazolo[1,5-a]pyridin-2-yl)-6,7-dihydro-1H-imidazo[4,5-c]pyridin-5(4H)-yl)methanone]
8 | 500 to 1000 nM | C[C@@H](O)c1nc(C(F)F)c(C(=O)N2CCc3[nH]cnc3[C@H]2c2cc3cccc(C(F)(F)F)n3n2)o1 [Example 1180, (4-(difluoromethyl)-2-((R)-1-hydroxyethyl)oxazol-5-yl)((S)4-(7-(trifluoromethyl)pyrazolo[1,5-a]pyridin-2-yl)-6,7-dihydro-1H-imidazo[4,5-c]pyridin-5(4H)-yl)methanone]
9 | 1000 to 5000 nM | COc1cccn2nc([C@H]3c4nc[nH]c4CCN3C(=O)c3nnc(C(C)(C)C)o3)cc12 [Example 1182, (R)-(5-(tert-butyl)-1,3,4-oxadiazol-2-yl)(4-(4-methoxypyrazolo[1,5-a]pyridin-2-yl)-6,7-dihydro-1H-imidazo[4,5-c]pyridin-5(4H)-yl)methanone]
10 | 500 to 1000 nM | COc1cccn2nc([C@@H]3c4nc[nH]c4CCN3C(=O)c3nnc(C(C)(C)C)o3)cc12 [Example 1183, (S)-(5-(tert-butyl)-1,3,4-oxadiazol-2-yl)(4-(4-methoxypyrazolo[1,5-a]pyridin-2-yl)-6,7-dihydro-1H-imidazo[4,5-c]pyridin-5(4H)-yl)methanone]
11 | 500 to 1000 nM | Cc1ccc2cc([C@H]3c4nc[nH]c4CCN3C(=O)c3cnco3)nn2c1 [Example 1186, (R)-(4-(6-methylpyrazolo[1,5-a]pyridin-2-yl)-6,7-dihydro-1H-imidazolo[4,5-c]pyridin-5(4H)-yl)(oxazol-5-yl)methanone]
12 | 1000 to 5000 nM | Cc1ccc2cc([C@@H]3c4nc[nH]c4CCN3C(=O)c3cnco3)nn2c1 [Example 1187, (S)-(4-(6-methylpyrazolo[1,5-a]pyridin-2-yl)-6,7-dihydro-1H-imidazo[4,5-c]pyridin-5(4H)-yl)(oxazol-5-yl)methanone]
13 | 1000 to 5000 nM | Cc1c(-c2nnc(C(=O)N3CCc4[nH]cnc4[C@@H]3c3cc4cccc(C)n4n3)o2)cnn1C [Example 1189, (R)-(5-(1,5-dimethyl-1H-pyrazol-4-yl)-1,3,4-oxadiazol-2-yl)(4-(7-methylpyrazolo[1,5-a]pyridin-2-yl)-6,7-dihydro-1H-imidazo[4,5-c]pyridin-5(4H)-yl)methanone]
14 | 1000 to 5000 nM | Cc1c(-c2nnc(C(=O)N3CCc4[nH]cnc4[C@@H]3c3cc4cccc(C(F)(F)F)n4n3)o2)cnn1C [Example 1191, (R)-(5-(1,5-dimethyl-1H-pyrazol-4-yl)-1,3,4-oxadiazol-2-yl)(4-(7-(trifluoromethyl)pyrazolo[1,5-a]pyridin-2-yl)-6,7-dihydro-1H-imidazo[4,5-c]pyridin-5(4H)-yl)methanone]

More lines, now with the values behind:

Row | Structure (SMILES) | AC50
15 | Cc1ncoc1C(=O)N1CCc2[nH]cnc2[C@H]1c1cc2cccc(C)n2n1 [Example 1148, (S)-(4-methyloxazol-5-yl)(4-(7-methylpyrazolo[1,5-a]pyridin-2-yl)-6,7-dihydro-1H-imidazo[4,5-c]pyridin-5(4H)-yl)methanone] | 500 to 1000 nM
16 | Cc1ncoc1C(=O)N1CCc2[nH]cnc2[C@@H]1c1cc2cccc(C)n2n1 [Example 1149, (R)-(4-methyloxazol-5-yl)(4-(7-methylpyrazolo[1,5-a]pyridin-2-yl)-6,7-dihydro-1H-imidazo[4,5-c]pyridin-5(4H)-yl)methanone] | 1000 to 5000 nM
17 | Cc1cccc2cc([C@@H]3c4nc[nH]c4CCN3C(=O)c3oc(C(C)(C)O)nc3C(F)(F)F)nn12 [Example 1150, (S)-(2-(2-hydroxypropan-2-yl)-4-(trifluoromethyl)oxazol-5-yl)(4-(7-methylpyrazolo[1,5-a]pyridin-2-yl)-6,7-dihydro-1H-imidazo[4,5-c]pyridin-5(4H)-yl)methanone] | < 500 nM
18 | Cc1cccc2cc([C@@H]3c4nc[nH]c4CCN3C(=O)c3oc([C@H](C)O)nc3C(F)F)nn12 [Example 1152, (4-(difluoromethyl)-2-((S)-1-hydroxyethyl)oxazol-5-yl)((S)-4-(7-methylpyrazolo[1,5-a]pyridin-2-yl)-6,7-dihydro-1H-imidazo[4,5-c]pyridin-5(4H)-yl)methanone] | < 500 nM
19 | O=C(c1ocnc1C(F)F)N1CCc2[nH]cnc2[C@H]1c1cc2cccc(C(F)(F)F)n2n1 [Example 1154, (S)-(4-(difluoromethyl)oxazol-5-yl)(4-(7-(trifluoromethyl)pyrazolo[1,5-a]pyridin-2-yl)-6,7-dihydro-1H-imidazo[4,5-c]pyridin-5(4H)-yl)methanone] | < 500 nM
20 | CC(C)(O)c1nc(C(F)F)c(C(=O)N2CCc3[nH]cnc3[C@H]2c2cc3cccc(C(F)(F)F)n3n2)o1 [Example 1156, (S)-(4-(difluoromethyl)-2-(2-hydroxypropan-2-yl)oxazol-5-yl)(4-(7-(trifluoromethyl)pyrazolo[1,5-a]pyridin-2-yl)-6,7-dihydro-1H-imidazo[4,5-c]pyridin-5(4H)-yl)methanone] | < 500 nM
21 | O=C(c1cnco1)N1CCc2[nH]cnc2[C@H]1c1cc2c(C(F)(F)F)cccn2n1 [Example 1158, (S)-oxazol-5-yl(4-(4-(trifluoromethyl)pyrazolo[1,5-a]pyridin-2-yl)-6,7-dihydro-1H-imidazo[4,5-c]pyridin-5(4H)-yl)methanone] | 500 to 1000 nM
22 | CC(C)(F)c1nnc(C(=O)N2CCc3[nH]cnc3[C@@H]2c2cc3cccc(C(F)(F)F)n3n2)o1 [Example 1160, (R)-(5-(2-fluoropropan-2-yl)-1,3,4-oxadiazol-2-yl)(4-(7-(trifluoromethyl)pyrazolo[1,5-a]pyridin-2-yl)-6,7-dihydro-1H-imidazo[4,5-c]pyridin-5(4H)-yl)methanone] | 1000 to 5000 nM
23 | CC(C)(F)c1nnc(C(=O)N2CCc3[nH]cnc3[C@H]2c2cc3cccc(C(F)(F)F)n3n2)o1 [Example 1161, (S)-(5-(2-fluoropropan-2-yl)-1,3,4-oxadiazol-2-yl)(4-(7-(trifluoromethyl)pyrazolo[1,5-a]pyridin-2-yl)-6,7-dihydro-1H-imidazo[4,5-c]pyridin-5(4H)-yl)methanone] | 500 to 1000 nM
24 | Cn1nc(Cl)nc1C(=O)N1CCc2[nH]cnc2[C@H]1c1cc2cccc(C(F)(F)F)n2n1 [Example 1162, (S)-(3-chloro-1-methyl-1H-1,2,4-triazol-5-yl)(4-(7-(trifluoromethyl)pyrazolo[1,5-a]pyridin-2-yl)-6,7-dihydro-1H-imidazo[4,5-c]pyridin-5(4H)-yl)methanone] | < 500 nM
25 | Cc1cccc2cc([C@H]3c4nc[nH]c4CCN3C(=O)c3oc([C@@H](C)O)nc3C(F)F)nn12 [Example 1165, (4-(difluoromethyl)-2-((R)-1-hydroxyethyl)oxazol-5-yl)((R)-4-(7-methylpyrazolo[1,5-a]pyridin-2-yl)-6,7-dihydro-1H-imidazo[4,5-c]pyridin-5(4H)-yl)methanone] | 1000 to 5000 nM
26 | COc1cccn2nc([C@@H]3c4nc[nH]c4CCN3C(=O)c3cnco3)cc12 [Example 1166, (S)-(4-(4-methoxypyrazolo[1,5-a]pyridin-2-yl)-6,7-dihydro-1H-imidazo[4,5-c]pyridin-5(4H)-yl)(oxazol-5-yl)methanone] | 500 to 1000 nM
